Measurements: patent US4357325A, “Methods of controlling Pasteurella infections” (Eli Lilly and Company, priority 1981, dated 1982)
Values after ≈ are worked out from the molar mass of the structure shown.

Key:
P. multocida = assay: MIC by conventional broth-dilution assay against P. multocida strains (Table II); type: cell-based, P. multocida (avian, bovine and porcine strains); conditions: Pasteurella multocida
Experimental: (§1) For example, representative compounds were tested against avian, bovine and porcine Pasteurella species, using the conventional broth-dilution assay. The P. haemolytica strains are bovine strains; the P. multocida strains are avian, bovine and porcine strains.

P. haemolytica = assay: MIC by conventional broth-dilution assay against P. haemolytica strains (Table II); type: cell-based, P. haemolytica (bovine strains); conditions: Mannheimia haemolytica
Experimental: as §1

Pasteurella multocida [1] = assay: Treatment of Pasteurellosis in chicks (Table III); type: in vivo, chicks; avian P. multocida; conditions: 1 and 4 h post challenge, 5 days observation, ten chicks per group
Experimental: Representative compounds were evaluated in groups of ten one-day-old chicks at the specified dosage of subcutaneous injection given one and four hours post challenge of the chicks with Pasteurella multocida (0.1 ml of a 20-hour tryptose broth culture of an avian P. multocida given subcutaneously). The compounds (as free bases) were administered in an aqueous propylene glycol solution; non-medicated water and feed were provided to the animals ad libitum.

Pasteurella multocida [2] = assay: Treatment of Pasteurellosis in mice (Table IV); type: in vivo, mice; bovine isolate of P. multocida; conditions: 50 mg/kg × 2 s.c., 1 and 4 h post challenge, 7 days
Experimental: Cirramycin A1 and rosaramicin were evaluated in mice by subcutaneous injection given one and four hours post challenge of the mice with Pasteurella multocida (0.1 ml of a 10^-5 dilution of a tryptose broth culture of a bovine isolate). Mortality was evaluated for the following seven days.

[3] = 30 mg/kg × 2 s.c., first (or only) experiment
[4] = 30 mg/kg × 2 s.c., second experiment

SMILES | MIC (P. multocida; P. multocida strain 17E) [µg/mL] | MIC (P. multocida; P. multocida strain 22A) [µg/mL] | MIC (P. multocida; P. multocida strain 40G) [µg/mL] | MIC (P. multocida; P. multocida strain 60A) [µg/mL] | MIC (P. multocida; P. multocida strain 68C) [µg/mL] | MIC (P. haemolytica; P. haemolytica strain 23A) [µg/mL] | MIC (P. haemolytica; P. haemolytica strain 23C) [µg/mL] | MIC (P. haemolytica; P. haemolytica strain 41D) [µg/mL] | Deaths in Treated Chicks/Deaths in Infected Nonmedicated Controls (Pasteurella multocida [1]; [3]) | Deaths in Treated Chicks/Deaths in Infected Nonmedicated Controls (Pasteurella multocida [1]; [4]) | No. Died/No. Treated (Pasteurella multocida [2]; Test A, replicate 1) | No. Died/No. Treated (Pasteurella multocida [2]; Test A, replicate 2) | No. Died/No. Treated (Pasteurella multocida [2]; Test B, replicate 1) | No. Died/No. Treated (Pasteurella multocida [2]; Test B, replicate 2) | Deaths in Treated Chicks/Deaths in Infected Nonmedicated Controls (Pasteurella multocida [1]; 60 mg/kg × 2 s.c.)
CCC1OC(=O)CC(O)C(C)C(OC2OC(C)C(O)C(N(C)C)C2O)C(CC=O)CC(C)C(O)C=CC(C)=CC1COC1OC(C)C(O)C(OC)C1OC (stereo not shown) [9-Dihydrodesmycosin, 9-dihydrodesmycosin] | 12.5 (≈ 16.2 µM) | 12.5 (≈ 16.2 µM) | 12.5 (≈ 16.2 µM) | 12.5 (≈ 16.2 µM) | 12.5 (≈ 16.2 µM) | 25 (≈ 32.3 µM) | 25 (≈ 32.3 µM) | 25 (≈ 32.3 µM) | 3/10 | 0/10 | – | – | – | – | –
CCC1OC(=O)CC(O)C(C)C(OC2OC(C)C(O)C(N(C)C)C2O)C(CCO)CC(C)C(=O)C=CC(C)=CC1COC1OC(C)C(O)C(OC)C1OC (stereo not shown) [20-Dihydrodesmycosin, 20-dihydrodesmycosin] | 25 (≈ 32.3 µM) | 25 (≈ 32.3 µM) | 50 (≈ 64.6 µM) | 25 (≈ 32.3 µM) | 6.25 (≈ 8.08 µM) | 50 (≈ 64.6 µM) | 50 (≈ 64.6 µM) | 50 (≈ 64.6 µM) | 0/10 | 0/10 | – | – | – | – | –
CCC1OC(=O)CC(O)C(C)C(OC2OC(C)C(O)C(N(C)C)C2O)C(CC=O)CC(C)C(=O)C=CC2(C)OC2C1C (stereo not shown) [Cirramycin A1, cirramycin A1] | 1.56 (≈ 2.61 µM) | 3.12 (≈ 5.22 µM) | 3.12 (≈ 5.22 µM) | ≤ 0.78 | 1.56 (≈ 2.61 µM) | 3.12 (≈ 5.22 µM) | 3.12 (≈ 5.22 µM) | 3.12 (≈ 5.22 µM) | – | – | 1/5 | 2/5 | 1/5 | 0/5 | –
CCC1OC(=O)CC(O)C(C)C(OC2OC(C)C(O)C(N(C)C)C2O)C(CC=O)CC(C)C(=O)C=CC(C)=CC1C (stereo not shown) [DOMT, 23-deoxy-5-O-mycaminosyltylonolide] | 1.56 (≈ 2.68 µM) | 1.56 (≈ 2.68 µM) | 3.12 (≈ 5.36 µM) | ≤ 0.78 | ≤ 0.78 | 3.12 (≈ 5.36 µM) | 3.12 (≈ 5.36 µM) | 6.75 (≈ 11.6 µM) | 1/9 | 1/10 | – | – | – | – | –
CCC1OC(=O)CC(O)C(C)C(OC2OC(C)C(O)C(N(C)C)C2O)C(CC=O)CC(C)C(=O)C=CC(C)=CC1COC1OC(C)C(O)C(OC)C1OC (stereo not shown) [Desmycosin, desmycosin] | 12.5 (≈ 16.2 µM) | 12.5 (≈ 16.2 µM) | 25 (≈ 32.4 µM) | 12.5 (≈ 16.2 µM) | 6.25 (≈ 8.1 µM) | 25 (≈ 32.4 µM) | 25 (≈ 32.4 µM) | 25 (≈ 32.4 µM) | 0/10 | 0/10 | – | – | – | – | –
CCC1OC(=O)CC(O)C(C)C(OC2OC(C)C(O)C(N(C)C)C2O)C(CC=O)CC(C)C(=O)C=CC(C)=CC1COC1OC(C)C(O)C(O)C1OC (stereo not shown) [Lactenocin, lactenocin] | 12.5 (≈ 16.5 µM) | 12.5 (≈ 16.5 µM) | 25 (≈ 33 µM) | 6.25 (≈ 8.25 µM) | 6.25 (≈ 8.25 µM) | 25 (≈ 33 µM) | 25 (≈ 33 µM) | 50 (≈ 66 µM) | 0/10 | 0/10 | – | – | – | – | –
CC[C@H]1OC(=O)C[C@@H](O)[C@H](C)[C@@H](O[C@@H]2O[C@H](C)C[C@H](N(C)C)[C@H]2O)[C@@H](CC=O)C[C@@H](C)C(=O)/C=C/[C@]2(C)O[C@H]2[C@@H]1C [Rosaramicin, rosaramicin] | ≤ 0.78 | 1.56 (≈ 2.68 µM) | 1.56 (≈ 2.68 µM) | ≤ 0.78 | ≤ 0.78 | 1.56 (≈ 2.68 µM) | 12.5 (≈ 21.5 µM) | 1.56 (≈ 2.68 µM) | 5/8 | – | 0/5 | 0/5 | 0/5 | 3/5 | 2/8
